Reference: patent US20240383875A1, “Benzimidazole Pyridine Derivatives” (Hoffmann-La Roche Inc., priority 2022, published 2024)

Key:
Assay type in all cases: biochemical
SIK1 = SIK1 (Homo sapiens, UniProt P57059); assay: Enzymatic activity assay SIK1, RapidFire mass spectrometry (phosphorylation of CHK-peptide); details: RapidFire MS, inhibition of SIK1; read-out: SIK1 RF IC50
How it was run: (§1)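 Compounds (12-point, 3-fold, generally 30 μM to 170 pM) were pre-incubated 30 min at ambient temperature with SIK1 (5 nM), SIK2 (0.5 nM) or SIK3 (1.5 nM) in HEPES pH 7.0/magnesium acetate buffer. CHK-peptide (10 μM solution) and ATP (100 μM solution) were then added for 45 min before formic acid quench.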

SIK2 = SIK2 (Homo sapiens, UniProt Q9H0K1); assay: Enzymatic activity assay SIK2, RapidFire mass spectrometry (phosphorylation of CHK-peptide); details: RapidFire MS, inhibition of SIK2; read-out: SIK2 RF IC50
How it was run: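 SIK2 (0.5 nM) in pH 7.0 HEPES buffer with 10 mM Mg acetate phosphorylates CHK-peptide (10 μM solution) with 100 μM ATP solution, 45 min ambient, then formic acid quench.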

SIK3 = SIK3 (Homo sapiens, UniProt Q9Y2K2); assay: Enzymatic activity assay SIK3, RapidFire mass spectrometry (phosphorylation of CHK-peptide); details: RapidFire MS, inhibition of SIK3; read-out: SIK3 RF IC50
How it was run: as §1

SIK3, sequence (Q9Y2K2 whole entry): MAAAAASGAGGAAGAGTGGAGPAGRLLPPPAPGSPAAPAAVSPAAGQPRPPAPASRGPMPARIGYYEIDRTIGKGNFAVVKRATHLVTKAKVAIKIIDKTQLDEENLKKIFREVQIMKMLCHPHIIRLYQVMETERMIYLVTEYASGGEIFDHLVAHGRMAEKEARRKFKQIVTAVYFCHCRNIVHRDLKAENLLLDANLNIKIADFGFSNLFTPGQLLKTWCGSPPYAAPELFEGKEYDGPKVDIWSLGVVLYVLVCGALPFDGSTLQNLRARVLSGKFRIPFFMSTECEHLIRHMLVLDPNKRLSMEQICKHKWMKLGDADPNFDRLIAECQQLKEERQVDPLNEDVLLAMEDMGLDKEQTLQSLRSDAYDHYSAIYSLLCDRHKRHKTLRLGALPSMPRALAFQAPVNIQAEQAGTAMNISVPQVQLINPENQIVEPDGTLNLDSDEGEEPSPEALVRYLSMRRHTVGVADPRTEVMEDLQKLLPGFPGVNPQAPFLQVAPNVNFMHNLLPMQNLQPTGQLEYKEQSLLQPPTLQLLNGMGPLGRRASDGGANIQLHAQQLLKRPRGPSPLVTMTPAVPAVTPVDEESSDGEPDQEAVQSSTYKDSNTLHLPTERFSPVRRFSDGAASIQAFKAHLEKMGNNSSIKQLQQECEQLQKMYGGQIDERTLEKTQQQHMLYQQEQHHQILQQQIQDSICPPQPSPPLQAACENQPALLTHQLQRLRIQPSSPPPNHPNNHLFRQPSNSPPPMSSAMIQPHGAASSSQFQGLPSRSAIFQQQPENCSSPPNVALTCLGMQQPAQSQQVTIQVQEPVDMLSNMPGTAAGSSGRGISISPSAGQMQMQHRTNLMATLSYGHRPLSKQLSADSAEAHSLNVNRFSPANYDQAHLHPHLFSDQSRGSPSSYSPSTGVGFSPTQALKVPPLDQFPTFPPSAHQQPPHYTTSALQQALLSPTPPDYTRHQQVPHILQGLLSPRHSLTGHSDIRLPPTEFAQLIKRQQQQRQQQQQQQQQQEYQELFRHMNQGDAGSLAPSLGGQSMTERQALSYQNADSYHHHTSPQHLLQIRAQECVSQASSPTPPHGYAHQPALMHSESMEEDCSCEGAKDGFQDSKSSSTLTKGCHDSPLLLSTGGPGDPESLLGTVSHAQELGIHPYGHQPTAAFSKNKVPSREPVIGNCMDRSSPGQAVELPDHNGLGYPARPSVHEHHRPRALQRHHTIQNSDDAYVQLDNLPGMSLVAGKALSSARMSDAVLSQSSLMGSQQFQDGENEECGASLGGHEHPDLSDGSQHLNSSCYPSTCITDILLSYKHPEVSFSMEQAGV
SIK1, sequence (P57059 whole entry): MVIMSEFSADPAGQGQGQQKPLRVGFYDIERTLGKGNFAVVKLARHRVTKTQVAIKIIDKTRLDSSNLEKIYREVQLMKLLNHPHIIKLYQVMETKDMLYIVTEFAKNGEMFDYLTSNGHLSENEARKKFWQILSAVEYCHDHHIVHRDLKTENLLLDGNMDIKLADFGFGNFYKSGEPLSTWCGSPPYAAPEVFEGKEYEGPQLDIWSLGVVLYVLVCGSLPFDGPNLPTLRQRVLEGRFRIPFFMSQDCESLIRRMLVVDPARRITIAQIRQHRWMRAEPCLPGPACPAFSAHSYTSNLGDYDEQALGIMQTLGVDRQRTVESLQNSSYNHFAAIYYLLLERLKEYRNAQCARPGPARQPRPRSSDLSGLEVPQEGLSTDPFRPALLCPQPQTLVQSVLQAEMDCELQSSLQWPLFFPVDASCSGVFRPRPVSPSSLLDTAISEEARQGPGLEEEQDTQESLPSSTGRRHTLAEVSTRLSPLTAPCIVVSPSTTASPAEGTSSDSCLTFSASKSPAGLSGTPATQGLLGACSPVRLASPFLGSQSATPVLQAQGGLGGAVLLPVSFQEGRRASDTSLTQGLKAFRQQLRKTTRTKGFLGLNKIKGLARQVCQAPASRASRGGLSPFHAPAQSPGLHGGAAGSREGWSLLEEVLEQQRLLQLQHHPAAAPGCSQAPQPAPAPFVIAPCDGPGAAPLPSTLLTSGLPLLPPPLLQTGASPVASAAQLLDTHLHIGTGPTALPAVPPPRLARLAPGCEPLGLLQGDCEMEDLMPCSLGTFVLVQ
SIK2, sequence (Q9H0K1 whole entry): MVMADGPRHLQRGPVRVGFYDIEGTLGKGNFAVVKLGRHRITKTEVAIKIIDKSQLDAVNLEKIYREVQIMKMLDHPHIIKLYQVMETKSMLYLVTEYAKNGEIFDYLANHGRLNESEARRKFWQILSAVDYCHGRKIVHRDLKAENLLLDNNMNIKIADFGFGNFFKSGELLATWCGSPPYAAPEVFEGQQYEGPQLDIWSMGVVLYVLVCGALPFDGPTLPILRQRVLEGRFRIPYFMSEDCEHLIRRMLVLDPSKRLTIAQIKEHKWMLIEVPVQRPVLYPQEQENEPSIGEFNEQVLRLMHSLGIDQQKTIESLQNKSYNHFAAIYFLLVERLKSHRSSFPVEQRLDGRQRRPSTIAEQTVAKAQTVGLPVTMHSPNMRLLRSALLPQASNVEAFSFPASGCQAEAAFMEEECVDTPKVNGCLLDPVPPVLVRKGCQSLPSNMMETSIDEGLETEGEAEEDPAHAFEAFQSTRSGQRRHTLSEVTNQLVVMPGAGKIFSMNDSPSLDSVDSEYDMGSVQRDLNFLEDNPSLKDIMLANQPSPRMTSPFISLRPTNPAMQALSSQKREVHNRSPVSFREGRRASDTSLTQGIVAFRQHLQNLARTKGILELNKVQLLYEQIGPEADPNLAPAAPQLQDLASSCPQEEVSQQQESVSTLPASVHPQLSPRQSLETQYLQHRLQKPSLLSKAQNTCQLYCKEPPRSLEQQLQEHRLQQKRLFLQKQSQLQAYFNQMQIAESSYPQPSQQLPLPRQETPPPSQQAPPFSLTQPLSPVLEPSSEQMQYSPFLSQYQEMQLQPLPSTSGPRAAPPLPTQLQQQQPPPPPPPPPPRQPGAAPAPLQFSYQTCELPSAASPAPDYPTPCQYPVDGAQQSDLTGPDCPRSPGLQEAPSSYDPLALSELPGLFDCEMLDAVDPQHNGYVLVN

| SMILES | IC50 (SIK1) [µM] | IC50 (SIK2) [µM] | IC50 (SIK3) [µM] |
| --- | --- | --- | --- |
| Cc1ccc(Nc2cc3ncn(-c4ccc(C(C)O)c(-c5cc(OC(F)F)ncc5C)n4)c3cc2F)nn1 (stereo not drawn) [Example 346, 1-[2-[2-(difluoromethoxy)-5-methyl-4-pyridyl]-6-[6-fluoro-5-[(6-methylpyridazin-3-yl)amino]benzimidazol-1-yl]-3-pyridyl]ethanol] | 0.133 | 0.001 | 0.0014 |
| Cc1ccc(Nc2ccc3c(c2)ncn3-c2ccc(C(C)O)c(-c3cc(F)cnc3Cl)n2)nn1 (stereo not drawn) [Example 174, 1-[2-(2-Chloro-5-fluoro-3-pyridyl)-6-[5-[(6-methylpyridazin-3-yl)amino]benzimidazol-1-yl]-3-pyridyl]ethanol; formic acid] | 12.1 | 0.151 | 0.029 |
| CCc1cc(C(F)F)nn1-c1nc(-n2cnc3ccc(Nc4ccc(C)nn4)cc32)ccc1C(C)O (stereo not drawn) [Example 368, 1-[2-[3-(difluoromethyl)-5-ethyl-pyrazol-1-yl]-6-[6-[(6-methylpyridazin-3-yl)amino]benzimidazol-1-yl]-3-pyridyl]ethanol] | 0.106 | 0.0771 | 1.1 |
| COCCOc1ccc(Nc2ccc3c(c2)ncn3-c2ccc(C(C)O)c(-n3nc(C#N)cc3C)n2)nn1 (stereo not drawn) [Example 193, 1-[3-(1-Hydroxyethyl)-6-[5-[[6-(2-methoxyethoxy)pyridazin-3-yl]amino]benzimidazol-1-yl]-2-pyridyl]-5-methyl-pyrazole-3-carbonitrile] | 0.068 | 0.0032 | 0.0019 |
| COC1CN(C(=O)c2ccc(Nc3ccc4c(c3)ncn4-c3ccc(C(C)O)c(-n4nc(C#N)cc4C)n3)nn2)C1 (stereo not drawn) [Example 191, 1-[3-(1-Hydroxyethyl)-6-[5-[[6-(3-methoxyazetidine-1-carbonyl)pyridazin-3-yl]amino]benzimidazol-1-yl]-2-pyridyl]-5-methyl-pyrazole-3-carbonitrile] | 0.053 | 0.0027 | 0.0022 |
| Cc1ccc(Nc2ccc3c(c2)ncn3-c2ccc(C(C)O)c(N3CC[C@@H](C#N)C3)n2)nn1 (stereo partly drawn) [Example 105, (3R)-1-[3-(1-Hydroxyethyl)-6-[5-[(6-methylpyridazin-3-yl)amino]benzimidazol-1-yl]-2-pyridyl]pyrrolidine-3-carbonitrile] | 1.34 | 0.783 | 0.236 |
| Cc1cc(C#N)nn1-c1nc(-n2cnc3cc(Nc4ccc(C5COC5)nn4)ccc32)ccc1C(C)O (stereo not drawn) [Example 228, 1-[3-(1-Hydroxyethyl)-6-[5-[[6-(oxetan-3-yl)pyridazin-3-yl]amino]benzimidazol-1-yl]-2-pyridyl]-5-methyl-pyrazole-3-carbonitrile] | 0.091 | 0.001 | 0.0009 |
| CCOc1cc(C)n(-c2nc(-n3cnc4ccc(Nc5ccc(C)nn5)cc43)ccc2C(C)O)n1 (stereo not drawn) [Example 134, 1-[2-(3-Ethoxy-5-methyl-pyrazol-1-yl)-6-[6-[(6-methylpyridazin-3-yl)amino]benzimidazol-1-yl]-3-pyridyl]ethanol] | 0.426 | 0.345 | 1.29 |
| Cc1cc(C#N)nn1-c1nc(-n2cnc3ccc(CN4CCCC4=O)cc32)ccc1C(C)O (stereo not drawn) [Example 212, 1-[3-(1-Hydroxyethyl)-6-[6-[(2-oxopyrrolidin-1-yl)methyl]benzimidazol-1-yl]-2-pyridyl]-5-methyl-pyrazole-3-carbonitrile] | 0.453 | 0.292 | 1.58 |
| Cc1ccc(Nc2ccc3c(c2)ncn3-c2ccc(C(C)O)c(-n3nc(C)cc3C(F)F)n2)nn1 (stereo not drawn) [Example 231, 1-[2-[5-(difluoromethyl)-3-methyl-pyrazol-1-yl]-6-[5-[(6-methylpyridazin-3-yl)amino]benzimidazol-1-yl]-3-pyridyl]ethanol] | 1.05 | 0.0129 | 0.002 |
| Cc1ccc(Nc2ccc3c(c2)ncn3-c2ccc(C(C)O)c(N3CCC4(C3)CC4(F)F)n2)nn1 (stereo not drawn) [Example 299, 1-[2-(2,2-difluoro-5-azaspiro[2.4]heptan-5-yl)-6-[5-[(6-methylpyridazin-3-yl)amino]benzimidazol-1-yl]-3-pyridyl]ethanol] | 0.273 | 0.0024 | 0.0007 |
| CCC(O)c1ccc(-n2cnc3cc(OC)c(OC)cc32)nc1-c1ccc(F)cc1OC (stereo not drawn) [Example 18, 1-(6-(5,6-Dimethoxy-1H-benzo[d]imidazol-1-yl)-2-(4-fluoro-2-methoxyphenyl)pyridin-3-yl)propan-1-ol] | 1 | 0.988 | 2.88 |
| Cc1cc(C#N)nn1-c1nc(-n2cnc3ccc(N4CC[C@H]5CNC(=O)[C@H]54)cc32)ccc1C(C)O (stereo partly drawn) [Example 343, 1-[6-[6-[(3aS,6aS)-6-oxo-2,3,3a,4,5,6a-hexahydropyrrolo[2,3-c]pyrrol-1-yl]benzimidazol-1-yl]-3-(1-hydroxyethyl)-2-pyridyl]-5-methyl-pyrazole-3-carbonitrile] | 0.005 | 0.022 | 0.063 |
| Cc1ccc(Nc2cc3ncn(-c4ccc(C(C)O)c(-n5nc(C#N)cc5C)n4)c3cc2C(F)(F)F)nn1 (stereo not drawn) [Example 275, 1-[3-(1-hydroxyethyl)-6-[5-[(6-methylpyridazin-3-yl)amino]-6-(trifluoromethyl)benzimidazol-1-yl]-2-pyridyl]-5-methyl-pyrazole-3-carbonitrile] | 0.8 | 0.0061 | 0.0159 |
| Cc1ccc(Nc2ccc3c(c2)ncn3-c2ccc([C@@H](C)O)c(-n3nc(C(F)F)cc3C)n2)nn1 [Example 230, (1R)-1-[2-[3-(Difluoromethyl)-5-methyl-pyrazol-1-yl]-6-[5-[(6-methylpyridazin-3-yl)amino]benzimidazol-1-yl]-3-pyridyl]ethanol] | 7.09 | 0.0724 | 0.0197 |
| CNC(=O)c1cc(C)n(-c2nc(-n3cnc4ccc(Nc5ccc(C)nn5)cc43)ccc2C(C)O)n1 (stereo not drawn) [Example 144, 1-[3-(1-Hydroxyethyl)-6-[6-[(6-methylpyridazin-3-yl)amino]benzimidazol-1-yl]-2-pyridyl]-N,5-dimethyl-pyrazole-3-carboxamide] | 8.4 | 5.92 | 9.24 |
| Cc1ccc(Nc2ccc3ncn(-c4ccc(C(C)O)c(-n5nc(OC(F)F)cc5C(F)F)n4)c3c2)nn1 (stereo not drawn) [Example 405] | 0.039 | 0.0198 | 0.15 |
| COc1ccnnc1Nc1ccc2c(c1)ncn2-c1ccc(C(C)O)c(-n2nc(C#N)cc2C)n1 (stereo not drawn) [Example 160, 1-[3-(1-Hydroxyethyl)-6-[5-[(4-methoxypyridazin-3-yl)amino]benzimidazol-1-yl]-2-pyridyl]-5-methyl-pyrazole-3-carbonitrile] | 0.223 | 0.0032 | 0.0012 |
| Cc1ccc(Nc2ccc3c(c2)ncn3-c2ccc(C(C)O)c(-c3cnn4c3C(=O)NCC4)n2)nn1 (stereo not drawn) [Example 165, 3-[3-(1-Hydroxyethyl)-6-[5-[(6-methylpyridazin-3-yl)amino]benzimidazol-1-yl]-2-pyridyl]-6,7-dihydro-5H-pyrazolo[1,5-a]pyrazin-4-one] | 13.3 | 0.359 | 0.0955 |
| Cc1ccc(Nc2ccc3c(c2)ncn3-c2ccc(C(C)O)c(N3CC4CC3CC4(F)F)n2)nn1 (stereo not drawn) [Example 322, 1-[2-(5,5-difluoro-2-azabicyclo[2.2.1]heptan-2-yl)-6-[5-[(6-methylpyridazin-3-yl)amino]benzimidazol-1-yl]-3-pyridyl]ethanol] | 0.966 | 0.0163 | 0.0024 |
